Assays:
MEK3 = MEK3 (Homo sapiens (Human), UniProt P46734); test: MEK family profiling ADP-Glo, MEK3; type: biochemical; conditions: p38α substrate; 0.6 μM ATP; read-out: IC50 MEK isoform 3
MEK5 = MEK5 (Homo sapiens (Human), UniProt Q13163); test: MEK family profiling ADP-Glo, MEK5; type: biochemical; conditions: Erk5 substrate; 0.6 μM ATP; read-out: IC50 MEK isoform 5
PC3M cells = test: Scratch wound assay; type: cell-based
ABL1-phophorylated = ABL1-phophorylated (Homo sapiens (Human), UniProt P00519); test: KINOMEscan binding assay; conditions: percent of control
CDC2L1 = CDC2L1 (Homo sapiens (Human), UniProt P21127); test: KINOMEscan binding assay; conditions: percent of control
CDK9 = CDK9 (Homo sapiens (Human), UniProt P50750); test: KINOMEscan binding assay; conditions: percent of control
CHEK2 = CHEK2 (Homo sapiens (Human), UniProt O96017); test: KINOMEscan binding assay; conditions: percent of control
CSNK1A1L = CSNK1A1L (Homo sapiens (Human), UniProt Q8N752); test: KINOMEscan binding assay; conditions: percent of control
CSNK1G1 = CSNK1G1 (Homo sapiens (Human), UniProt Q9HCP0); test: KINOMEscan binding assay; conditions: percent of control
CSML2A1 = CSML2A1 (Homo sapiens (Human), UniProt P68400); test: KINOMEscan binding assay; conditions: percent of control
[1] = target: EGFR(L747-S752DEL, P753S) (Homo sapiens (Human), UniProt P00533, DEL747-752/P753S); test: KINOMEscan binding assay; conditions: percent of control
EPHB4 = EPHB4 (Homo sapiens (Human), UniProt P54760); test: KINOMEscan binding assay; conditions: percent of control
ERK2 = ERK2 (Homo sapiens (Human), UniProt P28482); test: KINOMEscan binding assay; conditions: percent of control
ICK = ICK (Homo sapiens (Human), UniProt Q9UPZ9); test: KINOMEscan binding assay; conditions: percent of control
KIT(L576P) = KIT(L576P) (Homo sapiens (Human), UniProt P10721, L576P); test: KINOMEscan binding assay; conditions: percent of control
MEK1 = MEK1 (Homo sapiens (Human), UniProt Q02750); test: KINOMEscan binding assay; conditions: percent of control
MKK7 = MKK7 (Homo sapiens (Human), UniProt O14733); test: KINOMEscan binding assay; conditions: percent of control
MLK2 = MLK2 (Homo sapiens (Human), UniProt Q02779); test: KINOMEscan binding assay; conditions: percent of control
MUSK = MUSK (Homo sapiens (Human), UniProt O15146); test: KINOMEscan binding assay; conditions: percent of control
PRKCD = PRKCD (Homo sapiens (Human), UniProt Q05655); test: KINOMEscan binding assay; conditions: percent of control
TRKC = TRKC (Homo sapiens (Human), UniProt Q16288); test: KINOMEscan binding assay; conditions: percent of control
ZAP70 = ZAP70 (Homo sapiens (Human), UniProt P43403); test: KINOMEscan binding assay; conditions: percent of control
[2] = Dynamic light scattering (compound aggregation); type: physicochemical; conditions: 20, 5 and 1 μM in buffer with and without Triton X-100

Chain of CDK9 (P50750 whole entry): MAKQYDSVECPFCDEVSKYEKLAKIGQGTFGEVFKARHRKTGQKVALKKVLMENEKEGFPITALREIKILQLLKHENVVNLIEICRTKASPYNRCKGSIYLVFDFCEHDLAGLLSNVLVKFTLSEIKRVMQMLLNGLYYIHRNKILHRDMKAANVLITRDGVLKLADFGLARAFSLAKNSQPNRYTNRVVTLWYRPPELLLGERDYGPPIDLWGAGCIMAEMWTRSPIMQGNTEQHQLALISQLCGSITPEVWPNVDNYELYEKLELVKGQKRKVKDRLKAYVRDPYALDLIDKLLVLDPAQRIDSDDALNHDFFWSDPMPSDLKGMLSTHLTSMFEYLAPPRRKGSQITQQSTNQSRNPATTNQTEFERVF
Chain of ICK (Q9UPZ9 whole entry): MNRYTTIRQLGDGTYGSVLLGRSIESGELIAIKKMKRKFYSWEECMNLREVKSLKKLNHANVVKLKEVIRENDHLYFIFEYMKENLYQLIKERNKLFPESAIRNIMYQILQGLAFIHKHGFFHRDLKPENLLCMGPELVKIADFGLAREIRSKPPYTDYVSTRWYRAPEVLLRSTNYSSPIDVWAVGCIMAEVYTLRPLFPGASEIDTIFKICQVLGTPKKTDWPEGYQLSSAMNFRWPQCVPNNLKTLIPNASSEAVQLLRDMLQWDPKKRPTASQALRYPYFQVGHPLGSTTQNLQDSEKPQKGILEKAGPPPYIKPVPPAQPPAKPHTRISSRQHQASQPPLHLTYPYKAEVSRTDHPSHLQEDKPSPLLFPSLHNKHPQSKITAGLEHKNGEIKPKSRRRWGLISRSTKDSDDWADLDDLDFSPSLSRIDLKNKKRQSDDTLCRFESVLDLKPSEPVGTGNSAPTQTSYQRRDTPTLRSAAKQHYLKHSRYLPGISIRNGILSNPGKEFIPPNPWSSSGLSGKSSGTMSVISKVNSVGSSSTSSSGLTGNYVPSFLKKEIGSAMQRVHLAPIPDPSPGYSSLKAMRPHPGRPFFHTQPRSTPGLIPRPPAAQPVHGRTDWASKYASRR
Chain of CSNK1A1L (Q8N752 whole entry): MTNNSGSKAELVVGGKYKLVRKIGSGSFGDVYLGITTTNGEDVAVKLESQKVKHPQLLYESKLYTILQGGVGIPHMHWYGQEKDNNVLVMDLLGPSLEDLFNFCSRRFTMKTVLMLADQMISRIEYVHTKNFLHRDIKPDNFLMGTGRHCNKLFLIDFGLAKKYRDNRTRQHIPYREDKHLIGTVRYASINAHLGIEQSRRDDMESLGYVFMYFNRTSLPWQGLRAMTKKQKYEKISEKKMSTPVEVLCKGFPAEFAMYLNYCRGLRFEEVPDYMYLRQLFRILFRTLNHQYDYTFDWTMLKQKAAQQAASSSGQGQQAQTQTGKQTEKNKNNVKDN
Chain of MEK5 (Q13163 whole entry, canonical isoform): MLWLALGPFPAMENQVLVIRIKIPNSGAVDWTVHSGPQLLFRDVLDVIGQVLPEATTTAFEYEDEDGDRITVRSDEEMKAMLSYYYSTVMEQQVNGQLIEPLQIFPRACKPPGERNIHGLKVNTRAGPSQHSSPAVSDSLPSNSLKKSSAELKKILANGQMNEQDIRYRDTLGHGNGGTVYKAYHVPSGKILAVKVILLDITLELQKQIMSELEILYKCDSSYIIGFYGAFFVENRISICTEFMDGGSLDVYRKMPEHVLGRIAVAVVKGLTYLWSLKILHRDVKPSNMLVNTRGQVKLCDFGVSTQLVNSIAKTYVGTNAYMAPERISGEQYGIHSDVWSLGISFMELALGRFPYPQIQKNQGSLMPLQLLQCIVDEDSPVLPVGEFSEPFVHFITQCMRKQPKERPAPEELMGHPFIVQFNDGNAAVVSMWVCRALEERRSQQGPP
Chain of ERK2 (P28482 whole entry): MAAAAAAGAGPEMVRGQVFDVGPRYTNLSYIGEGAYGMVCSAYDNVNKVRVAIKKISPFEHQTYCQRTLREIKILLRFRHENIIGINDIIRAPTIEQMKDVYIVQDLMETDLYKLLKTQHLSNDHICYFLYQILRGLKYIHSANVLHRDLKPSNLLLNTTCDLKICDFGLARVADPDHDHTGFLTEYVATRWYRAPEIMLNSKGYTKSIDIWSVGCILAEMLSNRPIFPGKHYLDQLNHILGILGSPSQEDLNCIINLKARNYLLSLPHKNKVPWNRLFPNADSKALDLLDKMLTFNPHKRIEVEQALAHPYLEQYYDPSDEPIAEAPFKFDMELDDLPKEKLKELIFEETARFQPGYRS
Chain of MUSK (O15146 24-869): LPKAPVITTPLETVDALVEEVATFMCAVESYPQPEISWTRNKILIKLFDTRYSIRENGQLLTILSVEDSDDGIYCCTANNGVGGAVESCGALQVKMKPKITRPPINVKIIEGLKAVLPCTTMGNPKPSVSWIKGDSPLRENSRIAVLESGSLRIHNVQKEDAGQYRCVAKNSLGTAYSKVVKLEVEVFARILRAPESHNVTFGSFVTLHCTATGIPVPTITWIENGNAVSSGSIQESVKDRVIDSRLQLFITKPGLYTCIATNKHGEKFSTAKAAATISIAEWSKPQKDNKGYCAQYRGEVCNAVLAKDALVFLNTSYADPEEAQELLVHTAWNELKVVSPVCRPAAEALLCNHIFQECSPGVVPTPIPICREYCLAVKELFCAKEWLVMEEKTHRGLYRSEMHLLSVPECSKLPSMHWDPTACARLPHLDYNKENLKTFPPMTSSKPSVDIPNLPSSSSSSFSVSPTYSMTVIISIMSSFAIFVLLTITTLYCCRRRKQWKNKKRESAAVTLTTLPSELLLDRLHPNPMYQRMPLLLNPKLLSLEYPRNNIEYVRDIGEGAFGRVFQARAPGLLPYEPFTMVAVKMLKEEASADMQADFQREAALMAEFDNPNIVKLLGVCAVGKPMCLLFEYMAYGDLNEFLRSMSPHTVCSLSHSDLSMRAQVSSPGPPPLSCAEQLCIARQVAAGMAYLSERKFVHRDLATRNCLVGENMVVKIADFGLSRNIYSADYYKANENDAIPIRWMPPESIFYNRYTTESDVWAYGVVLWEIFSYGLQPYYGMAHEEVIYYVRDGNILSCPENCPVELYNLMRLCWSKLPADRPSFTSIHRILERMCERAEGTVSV
Chain of TRKC (Q16288 32-839): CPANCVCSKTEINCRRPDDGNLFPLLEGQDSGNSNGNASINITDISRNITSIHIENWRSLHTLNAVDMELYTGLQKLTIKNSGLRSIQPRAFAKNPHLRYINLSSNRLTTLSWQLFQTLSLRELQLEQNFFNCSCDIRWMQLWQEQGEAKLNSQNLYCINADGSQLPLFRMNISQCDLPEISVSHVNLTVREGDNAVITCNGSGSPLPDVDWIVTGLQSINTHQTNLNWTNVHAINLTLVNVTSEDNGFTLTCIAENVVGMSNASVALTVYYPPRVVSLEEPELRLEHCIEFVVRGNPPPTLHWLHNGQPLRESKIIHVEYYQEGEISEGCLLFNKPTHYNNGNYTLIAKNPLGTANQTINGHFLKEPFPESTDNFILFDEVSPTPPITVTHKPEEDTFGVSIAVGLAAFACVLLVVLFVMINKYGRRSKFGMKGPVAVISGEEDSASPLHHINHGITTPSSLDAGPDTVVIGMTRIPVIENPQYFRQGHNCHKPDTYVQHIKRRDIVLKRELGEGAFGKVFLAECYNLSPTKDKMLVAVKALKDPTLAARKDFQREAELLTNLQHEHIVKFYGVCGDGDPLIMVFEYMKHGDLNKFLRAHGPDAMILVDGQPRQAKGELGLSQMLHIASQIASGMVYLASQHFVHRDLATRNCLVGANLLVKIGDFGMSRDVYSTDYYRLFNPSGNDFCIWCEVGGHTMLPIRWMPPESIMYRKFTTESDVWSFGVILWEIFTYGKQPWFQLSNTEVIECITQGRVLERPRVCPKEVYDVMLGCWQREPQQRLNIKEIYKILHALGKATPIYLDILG
Chain of MKK7 (O14733 whole entry): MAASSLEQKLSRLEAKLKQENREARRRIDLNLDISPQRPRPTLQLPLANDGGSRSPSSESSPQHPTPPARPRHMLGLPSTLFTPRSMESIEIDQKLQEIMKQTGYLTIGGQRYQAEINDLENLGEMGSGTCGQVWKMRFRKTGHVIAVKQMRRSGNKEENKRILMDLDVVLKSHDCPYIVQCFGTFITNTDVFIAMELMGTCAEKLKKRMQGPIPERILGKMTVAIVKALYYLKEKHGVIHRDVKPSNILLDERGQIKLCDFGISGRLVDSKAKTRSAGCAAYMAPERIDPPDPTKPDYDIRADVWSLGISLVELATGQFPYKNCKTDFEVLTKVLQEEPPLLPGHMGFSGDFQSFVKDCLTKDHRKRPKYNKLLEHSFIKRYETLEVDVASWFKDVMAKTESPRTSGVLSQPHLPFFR
Chain of CDC2L1 (P21127 whole entry): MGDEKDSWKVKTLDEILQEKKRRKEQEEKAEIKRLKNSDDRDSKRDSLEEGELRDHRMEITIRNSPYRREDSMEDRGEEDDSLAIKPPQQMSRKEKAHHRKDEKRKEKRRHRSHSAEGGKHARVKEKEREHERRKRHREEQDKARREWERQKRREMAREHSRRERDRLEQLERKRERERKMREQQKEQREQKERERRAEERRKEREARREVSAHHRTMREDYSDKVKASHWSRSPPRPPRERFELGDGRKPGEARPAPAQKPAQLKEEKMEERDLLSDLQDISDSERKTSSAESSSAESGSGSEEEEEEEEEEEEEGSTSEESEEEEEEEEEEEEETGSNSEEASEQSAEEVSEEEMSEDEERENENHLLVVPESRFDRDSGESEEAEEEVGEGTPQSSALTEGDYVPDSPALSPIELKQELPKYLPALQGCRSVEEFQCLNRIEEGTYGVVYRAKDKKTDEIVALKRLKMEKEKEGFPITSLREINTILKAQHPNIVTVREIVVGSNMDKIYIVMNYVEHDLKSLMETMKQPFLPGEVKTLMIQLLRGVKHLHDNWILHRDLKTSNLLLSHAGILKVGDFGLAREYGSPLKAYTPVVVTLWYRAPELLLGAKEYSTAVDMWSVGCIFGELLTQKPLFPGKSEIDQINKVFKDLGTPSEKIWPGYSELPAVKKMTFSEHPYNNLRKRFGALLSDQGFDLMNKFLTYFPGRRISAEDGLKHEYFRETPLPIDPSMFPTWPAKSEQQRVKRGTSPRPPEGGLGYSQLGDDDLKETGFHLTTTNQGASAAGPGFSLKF

| SMILES | IC50 (MEK3) | IC50 (MEK5) | % Ctrl @ 10000 nM (ABL1-phophorylated) | % Ctrl @ 10000 nM (CDC2L1) | % Ctrl @ 10000 nM (CDK9) | % Ctrl @ 10000 nM (CHEK2) | % Ctrl @ 10000 nM (CSNK1A1L) | % Ctrl @ 10000 nM (CSNK1G1) | % Ctrl @ 10000 nM (CSML2A1) | % Ctrl @ 10000 nM [1] | % Ctrl @ 10000 nM (EPHB4) | % Ctrl @ 10000 nM (ERK2) | % Ctrl @ 10000 nM (ICK) | % Ctrl @ 10000 nM (KIT(L576P)) | % Ctrl @ 10000 nM (MKK7) | % Ctrl @ 10000 nM (MLK2) | % Ctrl @ 10000 nM (MUSK) | % Ctrl @ 10000 nM (PRKCD) | % Ctrl @ 10000 nM (TRKC) | % Ctrl @ 10000 nM (ZAP70) | also measured |
| --- | --- | --- | --- | --- | --- | --- | --- | --- | --- | --- | --- | --- | --- | --- | --- | --- | --- | --- | --- | --- | --- |
| O=C(O)c1ccc(-c2n[nH]c3cc(F)ccc23)cc1 [Compound 6ff, 4-(6-fluoro-2H-indazol-3-yl)benzoic Acid] | > 27 µM | > 27 µM | 73 % Ctrl | 100 % Ctrl | 98 % Ctrl | 39 % Ctrl | 93 % Ctrl | 90 % Ctrl | 0 % Ctrl | 81 % Ctrl | 100 % Ctrl | 100 % Ctrl | 26 % Ctrl | 11 % Ctrl | 52 % Ctrl | 95 % Ctrl | 65 % Ctrl | 100 % Ctrl | 11 % Ctrl | 73 % Ctrl | efficacy in wound scratch assay (PC3M cells; 10 μM): no efficacy; efficacy in wound scratch assay (PC3M cells; 25 μM): no efficacy; Percent Difference, DMSO vs. 10 uM inhibitor (PC3M cells; PC3M cells, 10 μM, wound gap 0 vs 20 hrs): −1.65%; Percent Difference, DMSO vs. 25 uM inhibitor (PC3M cells; PC3M cells, 25 μM, wound gap 0 vs 20 hrs): −0.16%; % Ctrl @ 10000 nM (MEK1): 49 % Ctrl |
| O=C(O)c1cccc(-c2n[nH]c3ccccc23)c1 [Compound 6a, 3-(1H-indazol-3-yl)benzoic Acid] | 16 µM | > 27 µM | 86 % Ctrl | 100 % Ctrl | 95 % Ctrl | 76 % Ctrl | 87 % Ctrl | 80 % Ctrl | 0.75 % Ctrl | 85 % Ctrl | 89 % Ctrl | 96 % Ctrl | 43 % Ctrl | 59 % Ctrl | 66 % Ctrl | 100 % Ctrl | 100 % Ctrl | 100 % Ctrl | 39 % Ctrl | 70 % Ctrl | compound aggregates by DLS [2]: under no conditions were aggregates observed |

From patent publication US11370770B2, “3-arylindazoles as selective MEK4 inhibitors” (priority 2019, dated 2022)
